Biological target: T1, human CRHR2-alpha (Homo sapiens, UniProt Q13324)
T1 sequence (Q13324 1-411): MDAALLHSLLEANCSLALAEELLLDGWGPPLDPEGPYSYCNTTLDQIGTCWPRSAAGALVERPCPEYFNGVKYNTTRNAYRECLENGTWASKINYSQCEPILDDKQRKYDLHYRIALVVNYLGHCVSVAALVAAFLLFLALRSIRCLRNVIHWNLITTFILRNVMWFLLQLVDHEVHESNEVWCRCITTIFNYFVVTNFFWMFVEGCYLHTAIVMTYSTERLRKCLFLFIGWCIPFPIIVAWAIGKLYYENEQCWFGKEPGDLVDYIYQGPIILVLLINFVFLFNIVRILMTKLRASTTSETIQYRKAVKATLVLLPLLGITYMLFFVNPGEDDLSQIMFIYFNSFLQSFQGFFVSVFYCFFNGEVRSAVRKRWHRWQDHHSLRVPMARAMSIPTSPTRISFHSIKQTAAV
Assay: cAMP functional assay for human CRHR2 (LANCE Ultra cAMP, TR-FRET)
Format: cell-based
Settings: CHO-K1 cells expressing human CRHR2-alpha, agonist human urocortin2 at EC80, cAMP; read-out: IC50 against CRHR2
Method in brief: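 First, starved and frozen CHO-K1 cells expressing the receptor are thawed into IBMX-containing HBSS buffer (pH 7.4). Next, compounds are added for 30 min at 25° C. Then agonist at EC80 (urocortin2 or CRF, per receptor) is added for another 30 min, followed by cAMP detection reagents.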

How did the IC50 turn out when `Cc1ncc(Cl)cc1C(=O)N[C@H]1CC[C@H](Cn2c(=O)n(-c3ccc(-n4cccn4)nc3)c3ccccc32)CC1` [Example 637, N-((1r,4r)-4-((3-(6-(1H-pyrazol-1-yl)pyridin-3-yl)-2-oxo-2,3-dihydro-1H-benzo[d]imidazol-1-yl)methyl)cyclohexyl)-5-chloro-2-methylnicotinamide] was run?
The IC50 was < 300 nM.

Which IC50 does the source give for `O=C(N[C@H]1CC[C@H](Cn2c(=O)n(-c3ccccc3Cl)c3ccncc32)CC1)c1cc(Cl)cnc1C(F)F` [Example 367, 5-chloro-N-((1r,4r)-4-((1-(2-chlorophenyl)-2-oxo-1H-imidazo[4,5-c]pyridin-3(2H)-yl)methyl)cyclohexyl)-2-(difluoromethyl)nicotinamide] here?
The IC50 was < 300 nM.

Which IC50 does the source give for `O=C(N[C@H]1CC[C@H](Cn2c(=O)n(-c3cccc(-c4nnco4)c3)c3ccccc32)CC1)c1cc(Cl)cnc1C(F)F` [Example 748, N-((1r,4r)-4-((3-(3-(1,3,4-oxadiazol-2-yl)phenyl)-2-oxo-2,3-dihydro-1H-benzo [d]imidazol-1-yl)methyl)cyclohexyl)-5-chloro-2-(difluoromethyl)nicotinamide] here?
Its IC50 is < 300 nM.

With `CCNC(=O)c1ccc(-n2c(=O)n(C[C@H]3CC[C@H](NC(=O)c4cc(Cl)cnc4C(F)F)CC3)c3ccccc32)cn1` [Example 551, 5-(3-(((1r,4r)-4-(5-chloro-2-(difluoromethyl)nicotina-mido)cyclohexyl)methyl)-2-oxo-2,3-dihydro-1H-benzo [d]imidazol-1-yl)-N-ethylpicolinamide] as the molecule, how does the IC50 read?
The IC50 was < 300 nM.

With `CNC(=O)c1ccc(-n2c(=O)n(C[C@H]3CC[C@H](NC(=O)c4cc(Cl)cnc4C(F)F)CC3)c3c(F)cccc32)cn1` [Example 548, 5-(3-(((1r,4r)-4-(5-chloro-2-(difluoromethyl)nicotina-mido)cyclohexyl)methyt)-4-fluoro-2-oxo-2,3-dihydro-1H-benzo[d]imidazol-1-yl)-N-methylpicolinamide] as the molecule, how does the IC50 read?
Its IC50 is < 300 nM.

How did the IC50 turn out when `Cc1ncc(Cl)cc1C(=O)N[C@H]1CC[C@H](Cn2c(=O)n(-c3ccc(N4CC(F)(F)C4)nc3)c3ccccc32)CC1` [Example 146, 5-chloro-N-((1r,4r)-4-((3-(6-(3,3-difluoroazetidin-1-yl)pyridin-3-yl)-2-oxo-2,3-dihydro-1H-benzo[d]imidazol-1-yl)methyl)cyclo-hexyl)-2-methylnicotinamide] was run?
The IC50 was < 300 nM.

How did the IC50 turn out when `Cc1ccc(-n2c(=O)n(C[C@H]3CC[C@H](NC(=O)c4cc(Cl)cnc4C)CC3)c3ccc(F)cc32)cn1` [Example 122, 5-chloro-N-((1r,4r)-4-((5-fluoro-3-(6-methylpyridin-3-yl)-2-oxo-2,3-dihydro-1H-benzo[d]imidazol-1-yl)methyl)cyclo-hexyl)-2-methylnicotinamide] was run?
The IC50 was < 300 nM.

Which IC50 does the source give for `Cc1ncc(Cl)cc1C(=O)N[C@H]1CC[C@H](Cn2c(=O)n(C3CCN(c4cccnc4)CC3)c3ccccc32)CC1` [Example 513, 5-chloro-2-methyl-N-((1r,4r)-4-((2-oxo-3-(1-(pyridin-3-yl)piperidin-4-yl)-2,3-dihydro-1H-benzo [d]imidazol-1-yl)methyl)cyclohexyl)nicotinamide] here?
Its IC50 is < 300 nM.

`Cc1ncc(Cl)cc1C(=O)N[C@H]1CC[C@H](Cn2c(=O)n(-c3ccc4[nH]nc(Cl)c4c3)c3ccccc32)CC1` [Example 222, 5-chloro-N-((1r,4r)-4-((3-(3-chloro-1H-indazol-5-yl)-2-oxo-2,3-dihydro-1H-benzo[d]imidazol-1-yl)methyl)cyclohexyl)-2-methylnicotinamide] was tested. Which IC50 did it give?
The IC50 was < 300 nM.

How did the IC50 turn out when `Cn1cnc2cc(-n3c(=O)n(C[C@H]4CC[C@H](NC(=O)c5cc(Cl)cnc5C(F)F)CC4)c4ccccc43)ccc21` [Example 386, 5-chloro-2-(difluoromethyl)-N-((1r,4r)-4-((1′-methyl-2-oxo-1′H-[1,5′-bibenzo[d]imidazol]-3(2H)-yl)methyl)cyclohexyl)nicotinamide] was run?
Its IC50 is < 300 nM.

`Cc1ccc(-n2c(=O)n(C[C@H]3CC[C@H](NC(=O)c4cc(Cl)ccc4C)CC3)c3ccccc32)cn1` [Example 267, 5-chloro-2-methyl-N-((1r,4r)-4-((3-(6-methyl-pyridin-3-yl)-2-oxo-2,3-dihydro-1H-benzo[d]imidazol-1-yl)methyl)cyclo-hexyl)benzamide] was tested. Which IC50 did it give?
Its IC50 is < 300 nM.

For `Cc1ncc(Cl)cc1C(=O)N[C@H]1CC[C@H](Cn2c(=O)n(-c3cccc4cnccc34)c3ccccc32)CC1` [Example 343, 5-chloro-N-((1r,4r)-4-((3-(isoquinolin-5-yl)-2-oxo-2,3-dihydro-1H-benzo[d]imidazol-1-yl)methyl)cyclo-hexyl)-2-methylnicotinamide], which IC50 is on record?
Its IC50 is < 300 nM.

`Cc1ncc(Cl)cc1C(=O)N[C@H]1CC[C@H](Cn2c(=O)n(-c3cncc(N(C)C)c3)c3ccccc32)CC1` [Example 483, 5-chloro-N-((1r,4r)-4-((3-(5-(dimethylamino)pyridin-3-yl)-2-oxo-2,3-dihydro-1H-benzo [d]imidazol-1-yl)methyl)cyclo-hexyl)-2-methylnicotinamide] was tested. Which IC50 did it give?
Its IC50 is < 300 nM.

Which IC50 does the source give for `COCCNc1ccc(-n2c(=O)n(C[C@H]3CC[C@H](NC(=O)c4cc(Cl)cnc4C(F)(F)F)CC3)c3ccccc32)cn1` [Example 664, 5-chloro-N-((1r,4r)-4-((3-(6-((2-methoxyethyl)amino)pyridin-3-yl)-2-oxo-2,3-dihydro-1H-benzo[d]imidazol-1-yl)methyl)cyclohexyl)-2-(trifluoromethyl)nicotinamide] here?
The IC50 was < 300 nM.

`O=C(N[C@H]1CC[C@H](Cn2c(=O)n(-c3ccncc3Cl)c3ccccc32)CC1)c1cc(Cl)cnc1C(F)(F)F` [Example 334, 5-chloro-N-((1r,4r)-4-((3-(3-chloropyridin-4-yl)-2-oxo-2,3-dihydro-1H-benzo[d]imidazol-1-yl)methyl)cyclo-hexyl)-2-(trifluoromethyl) nicotinamide] was tested. Which IC50 did it give?
Its IC50 is < 300 nM.

Which IC50 does the source give for `COc1ccc(-n2c(=O)n(C[C@H]3CC[C@H](NC(=O)c4c5c(nn4C)CCCC5)CC3)c3ccccc32)cn1` [Example 221, N-((1r,4r)-4-((3-(6-methoxy-pyridin-3-yl)-2-oxo-2,3-dihydro-1H-benzo[d]imidazol-1-yl)methyl)cyclohexyl)-2-methyl-4,5,6,7-tetrahydro-2H-indazole-3-carboxamide] here?
Its IC50 is < 300 nM.

For `COc1cncc(-n2c(=O)n(C[C@H]3CC[C@H](NC(=O)c4cc(Cl)cnc4C)CC3)c3ccccc32)c1` [Example 484, 5-chloro-N-((1r,4r)-4-((3-(5-methoxypyridin-3-yl)-2-oxo-2,3-dihydro-1H-benzo[d]imidazol-1-yl)methyl)cyclo-hexyl)-2-methylnicotinamide], which IC50 is on record?
Its IC50 is < 300 nM.

How did the IC50 turn out when `Cc1cc(C#N)c(-n2c(=O)n(C[C@H]3CC[C@H](NC(=O)c4cc(Cl)cnc4C)CC3)c3ccccc32)cn1` [Example 308, 5-chloro-N-((1r,4r)-4-((3-(4-cyano-6-methylpyridin-3-yl)-2-oxo-2,3-dihydro-1H-benzo[d]imidazol-1-yl)methyl)cyclohexyl)-2-methylnicotinamide] was run?
The IC50 was < 300 nM.

For `Cc1ncc(Cl)cc1C(=O)N[C@H]1CC[C@H](Cn2c(=O)n(-c3ccc(OC4COC4)nc3)c3ccccc32)CC1` [Example 140, 5-chloro-2-methyl-N-((1r,4r)-4-((3-(6-(oxetan-3-yloxy)pyridin-3-yl)-2-oxo-2,3-dihydro-1H-benzo[d]imidazol-1-yl)methyl)cyclohexyl)nicotinamide], which IC50 is on record?
The IC50 was < 300 nM.

Which IC50 does the source give for `Cc1ncc(Cl)cc1C(=O)N[C@H]1CC[C@H](Cn2c(=O)n(-c3ccc(C(=O)Nc4cncnc4)nc3)c3ccccc32)CC1` [Example 178, 5-(3-(((1r,4r)-4-(5-chloro-2-methylnicotinamido)cyclo-hexyl)methyl)-2-oxo-2,3-dihydro-1H-benzo[d]imidazol-1-yl)-N-(pyrimidin-5-yl) picolinamide] here?
Its IC50 is < 300 nM.

For `O=C(N[C@H]1CC[C@H](Cn2c(=O)n(-c3cc(F)ccc3Cl)c3cnccc32)CC1)c1cc(Cl)cnc1C(F)F` [Example 718, 5-chloro-N-((1r,4r)-4-((3-(2-chloro-5-fluorophenyl)-2-oxo-2,3-dihydro-1H-imidazo[4,5-c]pyridin-1-yl)methyl)cyclo-hexyl)-2-(difluoromethyl) nicotinamide], which IC50 is on record?
Its IC50 is < 300 nM.

Which IC50 does the source give for `O=C(N[C@H]1CC[C@H](Cn2c(=O)n(-c3ccc4ncccc4c3)c3ncccc32)CC1)c1cc(Cl)cnc1C(F)F` [Example 362, 5-chloro-2-(difluoromethyl)-N-((1r,4r)-4-((2-oxo-3-(quinolin-6-yl)-2,3-dihydro-1H-imidazo[4,5-b]pyridin-1-yl)methyl)cyclohexyl)nicotinamide] here?
The IC50 was < 300 nM.

How did the IC50 turn out when `Cc1ncc(Cl)cc1C(=O)N[C@H]1CC[C@H](Cn2c(=O)n(-c3ccc4c(c3)n(C)c(=O)n4C)c3ccccc32)CC1` [Example 169, 5-chloro-N-((1r,4r)-4-((1′,3′-dimethyl-2,2′-dioxo-2′,3′-dihydro-1′H-[1,5′-bibenzo [d]imidazol]-3(2H)-yl)methyl)cyclohexyl)-2-methylnicotinamide] was run?
The IC50 was < 300 nM.

How did the IC50 turn out when `O=C(N[C@H]1CC[C@H](Cn2c(=O)n(-c3cnc4[nH]c(CO)cc4c3)c3ccccc32)CC1)c1cc(Cl)cnc1C(F)F` [Example 709, 5-chloro-2-(difluoromethyl)-N-((1r,4r)-4-((3-(2-(hydroxymethyl)-1H-pyrrolo[2,3-b]pyridin-5-yl)-2-oxo-2,3-dihydro-1H-benzo[d]imidazol-1-yl)methyl)cyclohexyl)nicotinamide] was run?
Its IC50 is < 300 nM.

Source: US11802120B2, “Fused cyclic urea derivatives as CRHR2 antagonist” (RaQualia Pharma Inc., priority 2018, dated 2023)
